Experimental data published in patent publication US4097496A, “Novel cyclopentane derivatives” (Hoechst Aktiengesellschaft, priority 1973, dated 1978).
≈ marks a conversion by molar mass, not a printed value.

Tests used:
[1] = tested on: PGF2α-contraction in the isolated guinea pig uterus; assay: Inhibition of the PGF2α-contraction in the isolated guinea pig uterus; conditions: Cavia porcellus, agonist PGF2α 40 ng/ml, deJalon solution, probit analysis
Experimental: (§1) It is surprising that the compounds of the formula I which are closely related to the natural prostaglandins with regard to their structure, as it has been mentioned above, have a strong anti-prostaglandin effect. If, for example, a solution of the compounds of the invention in water is added to the isolated guinea pig ileum or uterus and if for example prostaglandin E2 or F2 α is added to this solution, in concentrations which normally stimulate the isolated ileum or the isolated uterus to strong contractions, only a weaker or no spasmogenic effect of the prostaglandins E2 and F2 α can be detected - depending on the concentrations used.
As test animals were used brown guinea pigs, males and females having a weight of from about 300 to 400 g. The animals were killed by a blow into the neck, the terminal ileum was rapidly taken off and put into a Petri dish containing a pre-heated Tyrode's solution. The intestine was decomposed into four equal sections (2 to 3 cm). […] This latter contraction was considered as being 100%, and the contraction determined by the compound of the invention acting as antagonist was expressed in percent with regard to this basic contraction. […]
The average concentration was determined by means of the probit analysis. The straight line resulting from this method allowed to read the average inhibiting concentration (Table I). […]

[2] = tested on: PGE2-contraction in the isolated guinea pig ileum; assay: Inhibition of the PGE2-contraction in the isolated guinea pig ileum; conditions: Cavia porcellus, agonist PGE2 200 ng/ml; for IC50: 3 min pre-treatment, probit analysis, 37° C; for inhibition at 10 µg/mL: at 10 μg/ml
Experimental: as §1
As test animals were used brown guinea pigs, males and females having a weight of from about 300 to 400 g. The animals were killed by a blow into the neck, the terminal ileum was rapidly taken off and put into a Petri dish containing a pre-heated Tyrode's solution. The intestine was decomposed into four equal sections (2 to 3 cm). Then the individual sections were put into an organ liquor filled with a Tyrode's solution and bubbled through by oxygen and they were fixed. The bath temperature was 37° C. Composition of the Tyrode's solution: […], 0.2 g of KCl, 0.55 g of CaCl2, 0.2 g of Mg Cl2, 1.0 g of glucose, 1.0 g of NaHCO3 in 1000 ml of distilled water. The free end was connected with the writing lever by a thread. The charge of the thread was 1 g. After a 30 minutes' recovery time the test itself was initiated. The test consisted in a pre-treatment with the antagonist to be tested and in the administration of the agonist three minutes later. The resulting contraction was compared with the initial contraction achieved by the administration of the agonist only. This latter contraction was considered as being 100%, and the contraction determined by the compound of the invention acting as antagonist was expressed in percent with regard to this basic contraction. All substances were dissolved in absolute alcohol and further diluted to their final concentrations with phosphate buffer (pH 7.4). As agonists were used prostaglandin E2 (UPJOHN) in the isolated ileum, and PGF2 in the isolated uterus.
The average concentration was determined by means of the probit analysis. The straight line resulting from this method allowed to read the average inhibiting concentration (Table I).
Inhibition of the PGE2 - and PGF2α -contraction in the isolated guinea pig ileum or uterus

[3] = read-out: inhibition in percent for the corresponding dosis

Row | SMILES | IC50 [1] | IC50 [2] | inhibition at 10 µg/mL [2, 3] | inhibition at 5 µg/mL ([2]; at 5 μg/ml, read-out: inhibition in percent for the corresponding dosis)
1 | CCCCCC(/C=C/C1CCC(=O)C1(CCC(C)CCCC(=O)OCC)C(=O)OCC)OC1CCCCO1 (stereo not drawn) [Example 4, (5 RS, 3" SR)-1-(6'-Ethoxycarbonyl-3'-methylhexyl)-2-oxo-5-[3"-(2"'-tetrahydropyranyloxy)-trans-1"-octenyl]-cyclopentane-carboxylic acid ethyl ester] |  | 1.2 µg/mL (≈ 2.24 µM) |  | 
2 | CCCCCC(/C=C/C1CCC(O)C1(CCCC(C)CCC(=O)O)C(=O)OCC)OC1CCCCO1 (stereo not drawn) [Example 8, (5RS,3"SR)-1-(6'-Carboxy-4'-methylhexyl)-2-hydroxy-5-[3"-(2'"-tetrahydropyranyloxy)-trans-1"-octenyl]-cyclopentane-carboxylic acid ethyl ester] |  | < 10 µg/mL | 80% | 
3 | CCCCCC(O)/C=C/C1CCC(O)C1(CCCCOCC(=O)O)C(=O)OCC (stereo not drawn) [Example 30, (5RS,3"SR)-1-(6'-Carboxy-5'-oxahexyl)-2-hydroxy-5-[3"-hydroxy-trans-1"-octentyl]-cyclopentane-carboxylic acid ethyl ester] |  | < 5 µg/mL |  | 80%
4 | CCCCCC(O)/C=C/C1CCC(O)C1(C/C=C\COCC(=O)O)C(=O)OCC (stereo not drawn) [Example 32, (5RS,3"SR)-1-(6'-Carboxy-5'-oxa-cis-2'-hexenyl)-2-hydroxy5-[3"-hydroxy-trans-1"-octenyl]-cyclopentane-carboxylic acid ethyl ester] |  | ~5 µg/mL (≈ 12.1 µM) |  | 
5 | CCCCCC(/C=C/C1CCC(O)C1(C/C=C/COCC(=O)O)C(=O)OCC)OC1CCCCO1 (stereo not drawn) [Example 35, (5RS,3"SR)-1-(6'-Carboxy-5'-oxa-trans-2'-hexenyl)-2-hydroxy-5-[3"-(2'"-tetrahydropyranyloxy)-trans-1"-octenyl]cyclopntane-carboxylic acid ethyl ester] |  | 2.3 µg/mL (≈ 4.63 µM) |  | 
6 | CCCCCC(O)/C=C/C1CCC(O)C1(C/C=C/COCC(=O)OCC)C(=O)OCC (stereo not shown) [Example 36] |  | 4.6 µg/mL (≈ 10.4 µM) |  | 
7 | CCCCCC(O)/C=C/C1CCC(O)C1(C/C=C/COCC(=O)O)C(=O)OCC (stereo not drawn) [Example 37, (5RS,3"SR)-1-(6'-Carboxy-5'-oxa-trans-2'-hexenyl)-2-hydroxy-5-(3"-hydroxy-trans-1"-octenyl)-cyclopentanecarboxylic acid ethyl ester] |  | < 10 µg/mL | 65% | 
8 | CCCCCC(/C=C/C1CCC(=O)C1(Cc1ccccc1CCCC(=O)OCC)C(=O)OCC)OC1CCCCO1 (stereo not drawn) [Example 44, (5RS,3'"SR)-1-[2'-(3"-Ethoxycarbonylpropyl)-benzyl]-2-oxo-5-[3'"-(2""-tetrahydropyranyloxy)-trans-1'"-octenyl]-cyclopentane-carboxylic acid ethyl ester] |  | < 10 µg/mL | 40% | 
9 | CCCCCC(/C=C/C1CCC(O)C1(Cc1ccccc1CCCC(=O)O)C(=O)OCC)OC1CCCCO1 (stereo not drawn) [Example 45, (5RS,3'"SR)-1-[2'-(3"-Carboxypropyl)-benzyl]-2-hydroxy-5-[3'"-(2""-tetrahydropyranyloxy)-trans-1'"-octenyl]-cyclopentane-carboxylic acid ethyl ester] |  | ~10 µg/mL (≈ 18.4 µM) |  | 
10 | CCCCCC(O)/C=C/C1CCC(O)C1(Cc1ccccc1CCCC(=O)O)C(=O)OCC (stereo not drawn) [Example 46, (5RS,3'"SR)-1-[2'-(3"-Carboxypropyl)-benzyl]-2-hydroxy-5-[3'"-hydroxy-trans-1'"-octenyl]-cyclopentane-carboxylic acid ethyl ester] |  | < 10 µg/mL | 80% | 

Second part, led by results:

Row | IC50 [1] | IC50 [2] | SMILES | inhibition at 10 µg/mL [2, 3] | inhibition at 5 µg/mL ([2]; at 5 μg/ml, read-out: inhibition in percent for the corresponding dosis)
11 | 2 µg/mL (≈ 4.85 µM) |  | CCCCCC(O)/C=C/C1CCC(O)C1(CCCCCCC(=O)O)C(=O)OCC (stereo not drawn) [Example 3, (5 RS, 3" SR)-1-(6'-carboxyhexyl)-2-hydroxy-5-(3"-hydroxy-trans-1"-octenyl)-cyclopentane-carboxylic acid ethyl ester] |  | 
12 | 10 µg/mL (≈ 19.6 µM) |  | CCCCCC(/C=C/C1CCC(O)C1(CCC(C)CCCC(=O)O)C(=O)OCC)OC1CCCCO1 (stereo not drawn) [Example 5, (5 RS, 3" SR)-1-(6'-Carboxy-3'-methylhexyl)-2-hydroxy-5-[3"-(2"'-tetrahydropyranyloxy)-trans-1"-octenyl]-cyclopentane-carboxylic acid ethyl ester] |  | 
13 |  | > 10 µg/mL | CCCCCC(/C=C/C1CCC(=O)C1(CCCCC(C)CC(=O)OCC)C(=O)OCC)OC1CCCCO1 (stereo not drawn) [Example 10, (5RS,3"SR)-1-(6'-Ethoxycarbonyl-5'-methylhexyl)-2-oxo-5-[3"-(2'"-tetrahydropyranyloxy)-trans-1"-octenyl]-cyclopentane-carboxylic acid ethyl ester] | 10% | 
14 |  | < 10 µg/mL | CCCCCC(/C=C/C1CCC(O)C1(CCCCC(C)CC(=O)O)C(=O)OCC)OC1CCCCO1 (stereo not drawn) [Example 11, (5RS,3"SR)-1-(6'-Carboxy-5'-methylhexyl)-2-hydroxy-5-[3"-(2'"-tetrahydropyranyloxy)-trans-1"-octenyl]-cyclopentane-carboxylic acid ethyl ester] | 80% | 
15 |  | ~5 µg/mL (≈ 9.32 µM) | CCCCCC(/C=C/C1CCC(=O)C1(CCCCCC(C)C(=O)OCC)C(=O)OCC)OC1CCCCO1 (stereo not drawn) [Example 13, (5RS,3"SR)-1-(6'-Ethoxycarbonylheptyl)-2-oxo-5-[3"-(2'"-tetrahydropyranyloxy)-trans-1"-octenyl]-cyclopentane-carboxylic acid ethyl ester] |  | 
